From patent US11608338B2, “Imidazolonylquinolines and the use thereof as ATM kinase inhibitors” (priority 2015, dated 2023)

Key:
Type in all cases: biochemical
PI3K p110α/p85α (human) = PI3K p110α/p85α (human) (Homo sapiens (Human), UniProt P42336); test: PI3K p110α/p85α (human), non-radioactive assay (HTRF); conditions: ATM versus PI3Kalpha
Protocol: PI3K p110α/p85α (Human), Non-Radioactive Assay
(§1) PI3K p110α/p85α (human) was incubated in an assay buffer comprising 10 μM phosphatidylinositol 4,5-bisphosphate and MgATP (concentration as necessary). The reaction was initiated by addition of MgATP solution. After incubation at room temperature for 40 minutes, the reaction was stopped by addition of a solution consisting of EDTA and biotinylated phosphatidylinositol 3,4,5-trisphosphate. Finally, the detection buffer, consisting of a europium-labelled anti-GST monoclonal antibody, a GST-labelled GRP1 PH domain and streptavidin allophycocyanin, was added. The plate was read out via homogeneous time-resolved fluorescence (HTRF) and the corresponding signals were evaluated via the formula HTRF=10000×(Em665 nm/Em620 nm).

PI3K (p120γ) (human) = PI3K (p120γ) (human) (Homo sapiens (Human), UniProt P48736); test: PI3K (p120γ) (human), non-radioactive assay (HTRF); conditions: ATM versus PI3Kgamma
Protocol: PI3K (p120γ) (Human), Non-Radioactive Assay
as §1, with “(p120γ)” for “p110α/p85α”, “After an” for “After”, “incubation time of 30 min” for “incubation”, “temperature,” for “temperature for 40 minutes,”, “nm). • MgATP=magnesium 5′-O-[hydroxy({[(hydroxyphosphinato)oxy]phosphinato}oxy)phosphoryl]adenosine • MgCl2=magnesium dichloride • EGTA=ethylene glycol bis(aminoethyl ether) N,N,N′,N′-tetraacetic acid • Tween 20=polysorbate 20 Medicament/Pharmaceutical Composition” for “nm).”

PI3K p110δ/p85α (human) = PI3K p110δ/p85α (human) (Homo sapiens (Human), UniProt O00329); test: PI3K p110δ/p85α (human), non-radioactive assay (HTRF); conditions: ATM versus PI3Kdelta
Protocol: PI3K p110δ/p85α (Human), Non-Radioactive Assay
as §1, with “p110δ/p85α” for “p110α/p85α”, “After an” for “After”, “incubation time of 30 min” for “incubation”, “temperature,” for “temperature for 40 minutes,”

PI3K p110β/p85α (human) = PI3K p110β/p85α (human) (Homo sapiens (Human), UniProt P42338); test: PI3K p110β/p85α (human), non-radioactive assay (HTRF); conditions: ATM versus PI3Kbeta
Protocol: PI3K p110β/p85α (Human), Non-Radioactive Assay
as §1, with “p110β/p85α” for “p110α/p85α”, “After an” for “After”, “incubation time of 30 min” for “incubation”, “temperature,” for “temperature for 40 minutes,”

mTOR (human) = mTOR (human) (Homo sapiens (Human), UniProt P42345); test: mTOR (human) radiometric kinase assay; conditions: ATM versus mTOR
Protocol: Furthermore, the effect, in particular inhibition, of other kinases and thus the selectivity of the compounds according to the invention can be determined with the aid of the following assay:
mTOR (human) was incubated with 50 mM HEPES pH 7.5, 1 mM EGTA, 0.01% Tween 20, 2 mg/ml of the substrate, 3 mM MnCl2 and [γ-^33P-ATP] (specific activity approximately 500 cpm/pmol, concentration as necessary). The reaction was initiated by addition of MgATP solution. After incubation at room temperature for 40 minutes, the reaction was stopped by addition of 3% phosphoric acid. 10 μl of the reaction solution were then transferred dropwise onto a P30 filtermat and washed three times for 5 min in 75 mM phosphoric acid and once in methanol, dried and evaluated by means of liquid scintillation counting.

Chain of PI3K p110δ/p85α (human) (O00329 whole entry): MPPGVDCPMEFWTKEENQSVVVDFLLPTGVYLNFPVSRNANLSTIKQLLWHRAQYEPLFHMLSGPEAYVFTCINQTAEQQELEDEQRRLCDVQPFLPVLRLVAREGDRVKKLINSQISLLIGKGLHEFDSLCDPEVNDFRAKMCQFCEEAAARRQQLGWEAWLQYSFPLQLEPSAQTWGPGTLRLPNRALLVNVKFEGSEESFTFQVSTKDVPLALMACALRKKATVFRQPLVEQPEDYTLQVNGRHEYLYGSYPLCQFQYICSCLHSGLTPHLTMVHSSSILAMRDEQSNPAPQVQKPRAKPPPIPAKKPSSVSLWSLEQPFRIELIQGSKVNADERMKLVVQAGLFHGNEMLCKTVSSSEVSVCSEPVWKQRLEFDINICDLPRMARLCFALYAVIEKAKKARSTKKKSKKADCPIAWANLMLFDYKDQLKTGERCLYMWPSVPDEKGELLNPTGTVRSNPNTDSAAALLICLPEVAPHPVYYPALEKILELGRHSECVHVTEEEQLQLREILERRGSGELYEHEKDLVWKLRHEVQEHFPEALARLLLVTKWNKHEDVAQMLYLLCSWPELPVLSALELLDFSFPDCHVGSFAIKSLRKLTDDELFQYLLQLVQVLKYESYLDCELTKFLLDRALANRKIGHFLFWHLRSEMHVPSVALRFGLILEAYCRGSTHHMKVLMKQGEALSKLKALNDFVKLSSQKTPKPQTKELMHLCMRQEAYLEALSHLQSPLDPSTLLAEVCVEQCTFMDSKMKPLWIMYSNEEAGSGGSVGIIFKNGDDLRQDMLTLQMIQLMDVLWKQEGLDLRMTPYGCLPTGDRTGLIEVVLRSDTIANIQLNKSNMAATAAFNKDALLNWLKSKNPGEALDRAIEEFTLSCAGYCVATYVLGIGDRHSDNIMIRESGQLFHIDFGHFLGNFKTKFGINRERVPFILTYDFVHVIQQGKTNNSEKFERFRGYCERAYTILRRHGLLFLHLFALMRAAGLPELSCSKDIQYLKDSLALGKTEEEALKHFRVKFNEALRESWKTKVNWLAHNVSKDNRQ
Chain of PI3K p110δ/p85α (human) (P27986 whole entry partner): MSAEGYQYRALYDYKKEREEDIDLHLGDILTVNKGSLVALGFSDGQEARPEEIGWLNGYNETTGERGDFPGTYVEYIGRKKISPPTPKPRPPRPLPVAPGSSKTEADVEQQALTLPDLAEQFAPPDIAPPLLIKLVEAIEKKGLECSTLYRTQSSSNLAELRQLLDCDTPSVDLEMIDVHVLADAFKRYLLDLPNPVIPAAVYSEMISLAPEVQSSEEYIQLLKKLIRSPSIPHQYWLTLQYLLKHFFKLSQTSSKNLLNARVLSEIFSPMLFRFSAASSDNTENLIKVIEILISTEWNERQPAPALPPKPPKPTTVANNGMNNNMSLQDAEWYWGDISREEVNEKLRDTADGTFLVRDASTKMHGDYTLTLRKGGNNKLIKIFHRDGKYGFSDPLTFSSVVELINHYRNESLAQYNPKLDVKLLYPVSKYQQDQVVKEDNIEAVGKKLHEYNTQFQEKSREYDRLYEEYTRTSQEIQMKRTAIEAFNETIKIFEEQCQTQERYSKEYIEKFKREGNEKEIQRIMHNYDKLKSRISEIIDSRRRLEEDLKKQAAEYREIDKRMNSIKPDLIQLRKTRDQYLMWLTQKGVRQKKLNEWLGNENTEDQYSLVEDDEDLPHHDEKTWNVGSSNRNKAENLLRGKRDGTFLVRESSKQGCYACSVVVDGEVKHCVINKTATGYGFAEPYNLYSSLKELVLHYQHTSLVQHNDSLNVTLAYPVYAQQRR
Chain of PI3K p110α/p85α (human) (P42336 whole entry): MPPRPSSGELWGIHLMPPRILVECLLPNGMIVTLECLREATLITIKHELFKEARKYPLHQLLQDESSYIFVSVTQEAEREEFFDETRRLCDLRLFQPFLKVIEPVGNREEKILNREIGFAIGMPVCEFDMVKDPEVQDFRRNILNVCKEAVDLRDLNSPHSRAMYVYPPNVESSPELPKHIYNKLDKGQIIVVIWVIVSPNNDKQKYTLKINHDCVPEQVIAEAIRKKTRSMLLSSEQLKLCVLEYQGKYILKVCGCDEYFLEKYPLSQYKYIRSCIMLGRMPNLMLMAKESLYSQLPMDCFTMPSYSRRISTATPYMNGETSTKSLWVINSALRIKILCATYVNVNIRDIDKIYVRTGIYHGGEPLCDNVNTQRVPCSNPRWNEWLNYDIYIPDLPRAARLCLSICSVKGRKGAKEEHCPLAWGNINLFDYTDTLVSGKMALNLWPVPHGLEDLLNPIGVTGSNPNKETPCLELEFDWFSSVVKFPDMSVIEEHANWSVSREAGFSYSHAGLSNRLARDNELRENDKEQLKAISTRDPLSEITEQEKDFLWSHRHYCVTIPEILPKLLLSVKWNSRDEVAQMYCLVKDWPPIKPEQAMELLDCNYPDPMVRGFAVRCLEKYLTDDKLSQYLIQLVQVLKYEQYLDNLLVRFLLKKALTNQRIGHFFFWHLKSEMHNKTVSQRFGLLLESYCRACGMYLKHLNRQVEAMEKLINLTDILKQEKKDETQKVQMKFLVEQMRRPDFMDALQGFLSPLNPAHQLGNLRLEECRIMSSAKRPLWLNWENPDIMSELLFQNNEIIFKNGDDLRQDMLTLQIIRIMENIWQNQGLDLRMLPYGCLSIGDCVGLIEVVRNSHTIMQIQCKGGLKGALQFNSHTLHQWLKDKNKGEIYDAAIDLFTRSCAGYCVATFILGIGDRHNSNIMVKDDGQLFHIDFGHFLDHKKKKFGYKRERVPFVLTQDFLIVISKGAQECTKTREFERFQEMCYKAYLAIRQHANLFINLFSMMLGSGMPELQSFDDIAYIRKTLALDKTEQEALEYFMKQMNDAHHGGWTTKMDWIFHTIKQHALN
Chain of PI3K p110α/p85α (human) (P27986 whole entry partner): as the sequence (P27986 whole entry partner) above
Chain of PI3K p110β/p85α (human) (P42338 whole entry): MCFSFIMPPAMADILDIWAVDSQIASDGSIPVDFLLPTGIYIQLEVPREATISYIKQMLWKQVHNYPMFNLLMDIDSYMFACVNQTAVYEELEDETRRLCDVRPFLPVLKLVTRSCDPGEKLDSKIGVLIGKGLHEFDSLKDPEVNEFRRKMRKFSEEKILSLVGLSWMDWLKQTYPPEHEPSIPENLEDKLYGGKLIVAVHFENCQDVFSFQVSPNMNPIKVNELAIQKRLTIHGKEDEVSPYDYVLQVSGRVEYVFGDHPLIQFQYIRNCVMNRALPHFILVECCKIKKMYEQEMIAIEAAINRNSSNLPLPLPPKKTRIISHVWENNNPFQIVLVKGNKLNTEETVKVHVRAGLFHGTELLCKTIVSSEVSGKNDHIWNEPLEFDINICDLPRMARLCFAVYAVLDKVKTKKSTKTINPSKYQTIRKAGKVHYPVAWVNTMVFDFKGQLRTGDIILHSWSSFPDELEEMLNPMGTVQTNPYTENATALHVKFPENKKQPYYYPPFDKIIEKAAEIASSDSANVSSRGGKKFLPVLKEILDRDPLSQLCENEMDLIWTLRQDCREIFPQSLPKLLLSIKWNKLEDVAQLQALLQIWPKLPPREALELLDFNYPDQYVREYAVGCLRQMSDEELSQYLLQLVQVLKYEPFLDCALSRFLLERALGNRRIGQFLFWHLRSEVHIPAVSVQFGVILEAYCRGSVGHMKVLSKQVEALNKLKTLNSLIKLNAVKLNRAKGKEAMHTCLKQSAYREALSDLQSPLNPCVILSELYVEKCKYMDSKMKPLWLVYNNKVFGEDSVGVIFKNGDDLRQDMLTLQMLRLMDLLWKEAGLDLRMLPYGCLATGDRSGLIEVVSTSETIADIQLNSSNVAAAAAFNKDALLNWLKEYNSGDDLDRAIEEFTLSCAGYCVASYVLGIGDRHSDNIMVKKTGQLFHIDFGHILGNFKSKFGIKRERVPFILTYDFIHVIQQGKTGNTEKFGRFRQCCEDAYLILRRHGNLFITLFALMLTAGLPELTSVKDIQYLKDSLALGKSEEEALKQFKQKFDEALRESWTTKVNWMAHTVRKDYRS
Chain of PI3K p110β/p85α (human) (P27986 whole entry partner): as the sequence (P27986 whole entry partner) above
Chain of PI3K (p120γ) (human) (P48736 whole entry): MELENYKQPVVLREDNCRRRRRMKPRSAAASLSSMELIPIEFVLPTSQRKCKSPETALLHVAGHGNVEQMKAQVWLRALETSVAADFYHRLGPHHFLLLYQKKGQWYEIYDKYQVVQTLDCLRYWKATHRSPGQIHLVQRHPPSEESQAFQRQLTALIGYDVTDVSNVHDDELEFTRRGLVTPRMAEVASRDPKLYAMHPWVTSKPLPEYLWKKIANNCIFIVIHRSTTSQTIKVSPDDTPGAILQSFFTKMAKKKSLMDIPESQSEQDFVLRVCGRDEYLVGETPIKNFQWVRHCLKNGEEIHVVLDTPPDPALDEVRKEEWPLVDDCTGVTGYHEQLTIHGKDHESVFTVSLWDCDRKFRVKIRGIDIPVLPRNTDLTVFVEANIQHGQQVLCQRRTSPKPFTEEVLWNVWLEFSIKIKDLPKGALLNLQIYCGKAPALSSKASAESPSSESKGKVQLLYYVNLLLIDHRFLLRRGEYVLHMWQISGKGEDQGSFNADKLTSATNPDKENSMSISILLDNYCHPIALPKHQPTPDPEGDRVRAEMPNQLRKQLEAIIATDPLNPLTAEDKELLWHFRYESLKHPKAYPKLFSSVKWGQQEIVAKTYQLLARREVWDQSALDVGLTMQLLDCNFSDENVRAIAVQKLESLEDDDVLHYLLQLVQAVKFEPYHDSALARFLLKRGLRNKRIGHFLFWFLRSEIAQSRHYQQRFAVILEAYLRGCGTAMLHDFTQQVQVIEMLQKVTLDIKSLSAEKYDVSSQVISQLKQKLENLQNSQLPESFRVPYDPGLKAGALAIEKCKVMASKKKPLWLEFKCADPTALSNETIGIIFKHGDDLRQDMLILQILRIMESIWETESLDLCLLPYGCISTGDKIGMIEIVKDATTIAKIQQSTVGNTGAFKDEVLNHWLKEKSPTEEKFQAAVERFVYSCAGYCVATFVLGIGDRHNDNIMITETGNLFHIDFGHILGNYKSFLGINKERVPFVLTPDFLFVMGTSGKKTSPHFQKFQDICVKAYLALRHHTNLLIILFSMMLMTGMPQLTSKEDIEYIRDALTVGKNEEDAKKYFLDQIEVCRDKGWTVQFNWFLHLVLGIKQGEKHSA

COc1cc2ncc3[nH]c(=O)n(-c4ncc(F)cc4F)c3c2cc1-c1cn(C)nc1C [Example 108, 1-(3,5-Difluoropyridin-2-yl)-8-(1,3-dimethyl-1H-pyrazol-4-yl)-7-methoxy-1,3-dihydroimidazo[4,5-c]-quinolin-2-one]
at least 2000 times: ratio of IC50 (ATM) and IC50 (PI3Kalpha), selectivity with respect to PI3Kalpha (PI3K p110α/p85α (human)) | ratio of IC50 (ATM) and IC50 (PI3Kgamma), selectivity with respect to PI3Kgamma (PI3K (p120γ) (human)) | ratio of IC50 (ATM) and IC50 (PI3Kdelta), selectivity with respect to PI3Kdelta (PI3K p110δ/p85α (human)) | ratio IC50 (ATM):IC50 (PI3Kbeta), selectivity with respect to PI3Kbeta (PI3K p110β/p85α (human))

CCc1cncc(F)c1-n1c(=O)n(C)c2cnc3cc(OC)c(-c4cn[nH]n4)cc3c21 [Example 125, 1-(3-Ethyl-5-fluoropyridin-4-yl)-7-methoxy-3-methyl-8-(2H-1,2,3-triazol-4-yl)-1,3-dihydroimidazo[4,5-c] quinolin-2-one]
at least 2000 times: ratio of IC50 (ATM) and IC50 (PI3Kalpha), selectivity with respect to PI3Kalpha (PI3K p110α/p85α (human)) | ratio of IC50 (ATM) and IC50 (PI3Kgamma), selectivity with respect to PI3Kgamma (PI3K (p120γ) (human)) | ratio of IC50 (ATM) and IC50 (PI3Kdelta), selectivity with respect to PI3Kdelta (PI3K p110δ/p85α (human)) | ratio IC50 (ATM):IC50 (mTOR), selectivity with respect to mTOR (mTOR (human)) | ratio IC50 (ATM):IC50 (PI3Kbeta), selectivity with respect to PI3Kbeta (PI3K p110β/p85α (human))

COc1cc2ncc3c(c2cc1-c1ccc2nc(C)[nH]c2c1)n(-c1c(F)cncc1OC)c(=O)n3C [Example 136, 1-(3-Fluoro-5-methoxy-pyridin-4-yl)-7-methoxy-3-methyl-8-(2-methyl-3H-benzoimidazol-5-yl)-1,3-dihydroimidazo[4,5-c]-quinolin-2-one]
at least 2000 times: ratio of IC50 (ATM) and IC50 (PI3Kgamma), selectivity with respect to PI3Kgamma (PI3K (p120γ) (human)) | ratio IC50 (ATM):IC50 (mTOR), selectivity with respect to mTOR (mTOR (human)) | ratio IC50 (ATM):IC50 (PI3Kbeta), selectivity with respect to PI3Kbeta (PI3K p110β/p85α (human))

COc1ccc(-c2cc3c(cc2OC)ncc2c3n(-c3c(F)cncc3OC)c(=O)n2C)cn1 [Example 137, 1-(3-Fluoro-5-methoxy-pyridin-4-yl)-7-methoxy-8-(6-methoxypyridin-3-yl)-3-methyl-1,3-dihydroimidazo-[4,5-c]quinolin-2-one]
at least 2000 times: ratio IC50 (ATM):IC50 (PI3Kbeta), selectivity with respect to PI3Kbeta (PI3K p110β/p85α (human))

[2H]C([2H])([2H])Oc1cncc(F)c1-n1c(=O)n(C)c2cnc3cc(OC)c(-c4cnn(C)c4)cc3c21 [Example 145, 1-[3-Fluoro-5-(trideuterio-methoxy)-4-pyridyl]-7-methoxy-3-methyl-8-(1-methylpyrazol-4-yl)imidazo-[4,5-c]quinolin-2-one]
at least 2000 times: ratio of IC50 (ATM) and IC50 (PI3Kgamma), selectivity with respect to PI3Kgamma (PI3K (p120γ) (human)) | ratio of IC50 (ATM) and IC50 (PI3Kdelta), selectivity with respect to PI3Kdelta (PI3K p110δ/p85α (human)) | ratio IC50 (ATM):IC50 (mTOR), selectivity with respect to mTOR (mTOR (human)) | ratio IC50 (ATM):IC50 (PI3Kbeta), selectivity with respect to PI3Kbeta (PI3K p110β/p85α (human))

COc1ccc(-c2cc3c(cc2OC)ncc2c3n(-c3cn(C)nc3F)c(=O)n2C)cn1 [Example 159, 1-(3-Fluoro-1-methyl-1H-pyrazo1-4-yl)-7-methoxy-8-(6-methoxypyridin-3-yl)-3-methyl-1,3-dihydroimidazo-[4,5-c]quinolin-2-one]
at least 2000 times: ratio IC50 (ATM):IC50 (mTOR), selectivity with respect to mTOR (mTOR (human)) | ratio IC50 (ATM):IC50 (PI3Kbeta), selectivity with respect to PI3Kbeta (PI3K p110β/p85α (human))

COc1cc2ncc3c(c2cc1-c1cnn(C)c1)n(-c1ncc(OCS(C)(=O)=O)cc1F)c(=O)n3C [Example 201, 1-(3-Fluoro-5-methyl-sulfonylmethoxypyridin-2-yl)-7-methoxy-3-methyl-8-(1-methyl-1H-pyrazol-4-yl)-1,3-dihydroimidazo[4,5-c]-quinolin-2-one]
at least 2000 times: ratio of IC50 (ATM) and IC50 (PI3Kalpha), selectivity with respect to PI3Kalpha (PI3K p110α/p85α (human)) | ratio of IC50 (ATM) and IC50 (PI3Kgamma), selectivity with respect to PI3Kgamma (PI3K (p120γ) (human)) | ratio of IC50 (ATM) and IC50 (PI3Kdelta), selectivity with respect to PI3Kdelta (PI3K p110δ/p85α (human)) | ratio IC50 (ATM):IC50 (mTOR), selectivity with respect to mTOR (mTOR (human)) | ratio IC50 (ATM):IC50 (PI3Kbeta), selectivity with respect to PI3Kbeta (PI3K p110β/p85α (human))
